Experimental findings from PubChem BioAssay (NCI) are described below.

“And” between values parts separate entries of the source, which are not always exact repeats. Identical values can stand only once.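 1) Cells in 96-well plates. 2) Compound, 48 h, 5 concentrations. 3) Linear interpolation between surrounding doses. 4) Unreached endpoint = highest concentration. The concentration for 50% growth inhibition is given as GI50. At the TGI there is no net growth.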

Among the test systems are OVCAR-4 ovarian; A498 renal; A549 NSCLC; TK-10 renal; ACHN renal; HS 578T breast; MOLT-4 leukemia; MCF7 breast; HCT-116 colon; NCI-H23 lung.
Holding throughout (assay): NCI-60 cell line screen, 48 h

For the compound `Cc1cc2c(C(N)=O)cccc2n1-c1nc2c(c(NCc3ccccc3)n1)CCCN2`, the GI50 in the experiment on OVCAR-4 ovarian is 0.178 µM; in the experiment on A498 renal, 0.212 µM; with A549 NSCLC, 0.22 µM; in the experiment with TK-10 renal it was 0.378 µM; in the experiment with ACHN renal, 0.236 µM; in the experiment with HS 578T breast, 0.262 µM. The GI50 in the experiment with MOLT-4 leukemia was 0.241 µM; in the experiment on MCF7 breast it was 0.0853 µM; in the experiment with HCT-116 colon, 0.0831 µM. Besides, the TGI with OVCAR-4 ovarian was determined as 0.396 µM; in the experiment on A498 renal, 0.362 µM; with A549 NSCLC, 0.543 µM; with TK-10 renal, 0.809 µM; in the experiment on ACHN renal, 0.791 µM; in the experiment with HS 578T breast it was 0.745 µM. Also, the results for the TGI in the experiment with MOLT-4 leukemia, in the experiment on MCF7 breast and with HCT-116 colon were 1.16 µM, 0.747 µM and 0.631 µM, respectively.
As to `C=C1C(=O)O[C@@H]2C[C@@H](C)[C@@H]3[C@@H](OC4OC(COC(C)=O)C(O)C(O)C4O)CC(=O)[C@@]3(C)C[C@H]12` (some centres undefined), the TGI in the experiment on OVCAR-4 ovarian worked out at 12.5 µM; in the experiment on A498 renal it was 30.1 µM; in the experiment with A549 NSCLC, 22.3 µM; with NCI-H23 lung it was 25.7 µM; in the experiment with TK-10 renal, 3.36 µM; in the experiment on ACHN renal it was 0.987 µM. Further, the TGI with HS 578T breast is more than 100 µM; in the experiment with MOLT-4 leukemia it was 7.4 µM; with MCF7 breast, 2.19 µM; in the experiment on HCT-116 colon, 1.88 µM.
With `COc1cccc(/C=C/C(=O)c2cc3c(N)c(C(=O)Nc4cccc(Cl)c4C)sc3nc2C)c1`, the GI50 is 1.64 µM with OVCAR-4 ovarian; 0.897 µM with A498 renal; 1.72 µM in the experiment on A549 NSCLC; 1.34 µM with NCI-H23 lung; 1.53 µM in the experiment on TK-10 renal; 0.811 µM in the experiment with ACHN renal. Also, the GI50 was 1.71 µM in the experiment on HS 578T breast, 1.26 µM with MOLT-4 leukemia, 0.473 µM with MCF7 breast and 0.605 µM in the experiment on HCT-116 colon. The TGI with OVCAR-4 ovarian is more than 14.1 µM; with A498 renal it was 3.07 µM; in the experiment with A549 NSCLC it was more than 50 µM; in the experiment with NCI-H23 lung it was 5.4 µM; in the experiment on TK-10 renal it was 8.19 µM; in the experiment with ACHN renal it was 1.95 µM. Further, the TGI with HS 578T breast is more than 50 µM; in the experiment on MOLT-4 leukemia it was more than 50 µM; with MCF7 breast, more than 24.8 µM; in the experiment on HCT-116 colon, 1.42 µM.
For the compound `O=C(N/N=C/c1ccc(O)cc1O)c1ccc(Nc2ccnc(C(F)(F)F)c2)cc1`, the TGI with OVCAR-4 ovarian was more than 100 µM; in the experiment with A498 renal, 97.4 µM; in the experiment on A549 NSCLC it was more than 100 µM; in the experiment on NCI-H23 lung it was more than 100 µM; in the experiment on TK-10 renal it was more than 47.1 µM; in the experiment with ACHN renal, more than 100 µM. The figures for the TGI with HS 578T breast, in the experiment on MCF7 breast and in the experiment with HCT-116 colon were 29 µM, more than 100 µM and more than 100 µM, respectively. Besides, the GI50 in the experiment on A498 renal is more than 41.3 µM; in the experiment with A549 NSCLC, more than 100 µM; in the experiment on NCI-H23 lung, more than 82.1 µM; with TK-10 renal it was 2.06 µM; in the experiment on ACHN renal, 31.8 µM; in the experiment on HS 578T breast it was 4.4 µM. In addition, the GI50 in the experiment on HCT-116 colon was 39.1 µM.
As to `NC1CCC[C@@H](O)[C@H]1O` (some centres undefined), the TGI with A498 renal, with A549 NSCLC, with NCI-H23 lung, with TK-10 renal, with ACHN renal and in the experiment on HS 578T breast was more than 100 µM in each case. Besides, the TGI in the experiment on MCF7 breast and in the experiment on HCT-116 colon was more than 100 µM each time. Moreover, in the experiment with TK-10 renal, the GI50 was more than 100 µM.
For `c1cncc(C(Nc2cccc3cccnc23)Nc2cccc3cccnc23)c1`, the TGI in the experiment on A549 NSCLC, in the experiment on NCI-H23 lung, with TK-10 renal, with ACHN renal, in the experiment on HS 578T breast and in the experiment with MCF7 breast was more than 100 µM each time. In addition, the TGI in the experiment with HCT-116 colon was more than 100 µM.
In the case of `CCOC(=O)C#Cc1ccc(C#CC(=O)OCC)cc1`, the TGI in the experiment on A498 renal was more than 51.5 µM; in the experiment with A549 NSCLC, more than 37.5 µM; in the experiment with NCI-H23 lung, more than 30 µM; with TK-10 renal, 17.8 µM; with ACHN renal, more than 21.3 µM; in the experiment with HS 578T breast, 29 µM. Also, the TGI worked out at 10.6 µM in the experiment with MCF7 breast and 11.2 µM in the experiment with HCT-116 colon.
`Cc1nc(NC(=S)Nc2ccc(F)cc2)sc1C(=O)NNC(=S)Nc1ccc(F)cc1`: the GI50 is 5.55 µM in the experiment on OVCAR-4 ovarian; 2.4 µM with A498 renal; 5.29 µM with A549 NSCLC; 2.78 µM in the experiment with NCI-H23 lung; 6.93 µM in the experiment on TK-10 renal; 11.4 µM with HS 578T breast. For the same compound, the GI50 in the experiment with MOLT-4 leukemia was 3.33 µM; with MCF7 breast, 3.72 µM; with HCT-116 colon it was 7.93 µM. In addition, the TGI in the experiment on OVCAR-4 ovarian turned out to be 60 µM; in the experiment with A498 renal, 15.4 µM; in the experiment on A549 NSCLC it was 45.5 µM; in the experiment on NCI-H23 lung, 9.73 µM; with TK-10 renal, 48.1 µM; with HS 578T breast it was 38 µM. Further, the TGI is more than 100 µM in the experiment on MOLT-4 leukemia, 32.7 µM with MCF7 breast and more than 100 µM in the experiment with HCT-116 colon.
Take `Cn1c2ccc([N+](=O)[O-])cc2c(=O)c2c(O)cc(O)cc21`: the TGI in the experiment with OVCAR-4 ovarian, in the experiment on A498 renal, in the experiment with A549 NSCLC, in the experiment on TK-10 renal, with ACHN renal and in the experiment on HS 578T breast was more than 100 µM in each case. In addition, the TGI in the experiment on MOLT-4 leukemia and in the experiment with MCF7 breast was more than 100 µM each time.
Turning to `CN(C)CCCn1c2c3ccccc3ccc2c2oc(=O)c3ccccc3c21`, the TGI in the experiment with OVCAR-4 ovarian was more than 95 µM; with A498 renal it was 28.6 µM; in the experiment with A549 NSCLC, 11 µM; with NCI-H23 lung it was 13.1 µM; in the experiment with TK-10 renal it was 23 µM; with ACHN renal it was 15.7 µM. For the same compound, the TGI in the experiment on HS 578T breast is more than 65.6 µM; in the experiment with MOLT-4 leukemia, 5.19 µM; in the experiment on HCT-116 colon, 5.05 µM.
As for `CCOC(=O)[C@@H](C)C[C@H](Cc1ccccc1)NC(=O)c1csc([C@@H](C[C@H](C(C)C)N(C)C(=O)[C@H](CCC(C)C)NC(=O)[C@H]2CCCCN2C)OC(C)=O)n1`, the GI50 with OVCAR-4 ovarian was 0.497 µM; in the experiment on A498 renal it was 0.00419 µM; in the experiment with A549 NSCLC it was 0.0145 µM; in the experiment with NCI-H23 lung, 0.0129 µM; with TK-10 renal, 4.12 µM; with HS 578T breast, 0.00922 µM. Moreover, the figures for the GI50 with MOLT-4 leukemia, in the experiment with MCF7 breast and in the experiment on HCT-116 colon were 0.0167 µM, less than 0.00333 µM and 0.00424 µM, respectively. Further, the TGI is more than 33.3 µM in the experiment with OVCAR-4 ovarian; 0.0226 µM with A498 renal; more than 33.3 µM in the experiment on A549 NSCLC; more than 33.3 µM in the experiment on NCI-H23 lung; more than 33.3 µM in the experiment on TK-10 renal; 3.54 µM in the experiment with HS 578T breast. Moreover, the TGI amounted to 5.1 µM with MOLT-4 leukemia, 6.3 µM in the experiment on MCF7 breast and 8.17 µM with HCT-116 colon.
On to `CCN(CC)CCCC(C)Nc1cnc(C(=O)Nc2cc(F)cc3cccnc23)cn1` (centres undefined), for which the GI50 in the experiment with OVCAR-4 ovarian was 2.24 µM and 0.35 µM; with A498 renal, 2.72 µM and 1.6 µM; in the experiment on A549 NSCLC, 8.14 µM and 2.41 µM; with TK-10 renal, 10.4 µM and 1.54 µM; with ACHN renal, 2.81 µM and 0.683 µM; in the experiment on HS 578T breast it was 3.97 µM and 2.15 µM. For the same compound, the GI50 is 1.94 µM and 0.496 µM in the experiment on MOLT-4 leukemia; 2.1 µM with MCF7 breast; 2.7 µM and 0.35 µM in the experiment on HCT-116 colon. In addition, the TGI in the experiment with A498 renal was 14.5 µM and 3.24 µM; with A549 NSCLC, 22.3 µM and 6.28 µM; with TK-10 renal it was 22.4 µM and 3.12 µM; in the experiment on ACHN renal, 9.61 µM and 1.96 µM; with HS 578T breast, 21.1 µM and 6.62 µM; in the experiment with MOLT-4 leukemia, 6.53 µM and > 43 µM. The TGI in the experiment with MCF7 breast was 6.91 µM; with HCT-116 colon it was 10.1 µM and 1.23 µM.
`CCc1nc2ccc(Cc3ccc(C(=O)NO)cc3)cc2c(=O)n1CCc1ccccc1`: the GI50 in the experiment with OVCAR-4 ovarian is 1.25 µM; with A498 renal, 0.364 µM; with A549 NSCLC, 1.15 µM; with NCI-H23 lung, 1.11 µM; in the experiment with TK-10 renal, 1.28 µM; in the experiment on HS 578T breast, 1.59 µM. Besides, the figures for the GI50 in the experiment with MOLT-4 leukemia, with MCF7 breast and with HCT-116 colon were 0.637 µM, 1.34 µM and 0.388 µM, respectively. The TGI in the experiment with OVCAR-4 ovarian turned out to be 6.09 µM; in the experiment on A498 renal, 1.93 µM; with A549 NSCLC, 2.99 µM; with NCI-H23 lung it was 3.89 µM; in the experiment on TK-10 renal, 2.89 µM; in the experiment on HS 578T breast, 7.4 µM. Further, the TGI in the experiment with MOLT-4 leukemia came out at 16.7 µM; in the experiment on MCF7 breast, 6.82 µM; in the experiment on HCT-116 colon, 1.57 µM.
On to `O=[N+]([O-])c1cc(Br)cc2c1[nH]c1ccc(Br)cc12`, for which the GI50 in the experiment on OVCAR-4 ovarian was 2.48 µM; in the experiment on A498 renal, 6.86 µM; in the experiment on A549 NSCLC, 6.11 µM; in the experiment on NCI-H23 lung, 8.56 µM; with TK-10 renal, 2.46 µM; in the experiment on ACHN renal, 3.31 µM. The GI50 was 2.25 µM in the experiment with HS 578T breast, 6.34 µM in the experiment with MCF7 breast and 5 µM in the experiment on HCT-116 colon. Further, the TGI in the experiment with OVCAR-4 ovarian is 8.47 µM; in the experiment with A498 renal, 81.8 µM; in the experiment with A549 NSCLC, 45 µM; in the experiment on NCI-H23 lung, more than 100 µM; in the experiment with TK-10 renal, 8.48 µM; with ACHN renal, 19.9 µM. The TGI was 20 µM in the experiment with HS 578T breast, more than 100 µM with MCF7 breast and 21.5 µM in the experiment on HCT-116 colon.
